Assay results published in patent US11078198B2 (BRISTOL-MYERS SQUIBB COMPANY, priority 2017, dated 2021).

Each compound was assayed against T1, human FXR (Homo sapiens, UniProt Q96RI1) (assay: transient human FXR/Gal4-luciferase reporter assay). Settings: Gal4-hFXR transfected HEK293 reporter cells; relative to 8 μM GW-4064.
T1 construct: expressed in transfected cells; host or cells: HEK293 cells stably carrying a 5xGal4-response-element firefly luciferase reporter, transiently transfected with pcDNA3.1-Gal4-FXR
T1 sequence (Q96RI1 262-486 limits assumed): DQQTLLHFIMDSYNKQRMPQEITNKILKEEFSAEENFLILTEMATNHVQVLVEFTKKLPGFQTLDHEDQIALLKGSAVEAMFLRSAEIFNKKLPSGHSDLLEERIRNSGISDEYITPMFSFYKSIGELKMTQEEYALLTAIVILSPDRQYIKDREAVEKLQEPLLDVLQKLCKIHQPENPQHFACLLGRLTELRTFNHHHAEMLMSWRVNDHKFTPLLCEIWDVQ
Type: cell-based
Summary of the method: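 Transient Gal4-hFXR LBD fusion (pcDNA3.1, Lipofectamine, overnight) expressed in a HEK293 reporter line stably bearing five Gal4 elements upstream of firefly luciferase, grown in charcoal/dextran-stripped FBS. Compound dilutions in DMSO incubated with cells overnight at 37° C, 5% CO2, before luciferase readout.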

Compound | EC50 [nM]
CC(C)c1onc(-c2c(Cl)cccc2Cl)c1C1=CC2(CCN(c3ccc4nc(C(=O)O)cc(C(F)(F)F)c4c3)CC2)C1 [Example 84, 6-(2-(3-(2,6-Dichlorophenyl)-5-isopropylisoxazol-4-yl)-7-azaspiro[3.5]non-1-en-7-yl)-4-(trifluoromethyl)quinoline-2-carboxylic acid] | 127
O=C(O)c1cc(C(F)(F)F)c2cc(N3CCC4(C=C(c5c(-c6c(Cl)cc(F)cc6Cl)noc5C5CC5)C4)CC3)ccc2n1 [Example 86, 6-(2-(5-Cyclopropyl-3-(2,6-dichloro-4-fluorophenyl)isoxazol-4-yl)-7-azaspiro[3.5]non-1-en-7-yl)-4-(trifluoromethyl)quinoline-2-carboxylic acid] | 68
Cc1cc(C(=O)O)nc2ccc(N3CCC4(C=C(c5c(-c6c(Cl)cncc6Cl)noc5C5CC5)C4)CC3)cc12 [Example 87, 6-(2-(5-Cyclopropyl-3-(3,5-dichloropyridin-4-yl)isoxazol-4-yl)-7-azaspiro[3.5]non-1-en-7-yl)-4-methylquinoline-2-carboxylic acid] | 76
CC1(c2onc(-c3c(Cl)cncc3Cl)c2C2=CC3(CCN(c4ccc5nc(C(=O)O)cc(C(F)(F)F)c5c4)CC3)C2)CC1 [Example 94, 6-(2-(3-(3,5-Dichloropyridin-4-yl)-5-(1-methylcyclopropyl)isoxazol-4-yl)-7-azaspiro[3.5]non-1-en-7-yl)-4-(trifluoromethyl)quinoline-2-carboxylic acid] | 507
CC(C)c1onc(-c2c(Cl)cncc2Cl)c1C1=CC2(CCN(c3ccc4nc(C(=O)O)cc(C(F)(F)F)c4c3)CC2)C1 [Example 95, 6-(2-(3-(3,5-Dichloropyridin-4-yl)-5-isopropylisoxazol-4-yl)-7-azaspiro[3.5]non-1-en-7-yl)-4-(trifluoromethyl)quinoline-2-carboxylic acid] | 37
O=C(O)c1cc(C(F)(F)F)c2cc(N3CCC4(C=C(c5c(C6CCCCC6)noc5C5CC5)C4)CC3)ccc2n1 [Example 98, 6-(2-(3-Cyclohexyl-5-cyclopropylisoxazol-4-yl)-7-azaspiro[3.5]non-1-en-7-yl)-4-(trifluoromethyl)quinoline-2-carboxylic acid] | 1720
O=C(O)c1ccc2nc(N3CCC4(C=C(c5c(-c6c(Cl)cccc6Cl)noc5C5CC5)C4)CC3)cnc2c1 [Example 100, 2-(2-(5-cyclopropyl-3-(2,6-dichlorophenyl)isoxazol-4-yl)-7-azaspiro[3.5]non-1-en-7-yl)quinoxaline-6-carboxylic acid] | 33
O=C(O)c1ccc2nc(N3CCC4(C=C(c5c(-c6ccccc6C(F)(F)F)noc5C5CC5)C4)CC3)cnc2c1 [Example 101, 2-(2-(5-Cyclopropyl-3-(2-(trifluoromethyl)phenyl)isoxazol-4-yl)-7-azaspiro[3.5]non-1-en-7-yl)quinoxaline-6-carboxylic acid] | 17
O=C(O)c1ccc2nc(N3CCC4(C=C(c5c(-c6ccccc6C(F)(F)F)noc5C5CC5)C4)CC3)sc2n1 [Example 102, 2-(2-(5-Cyclopropyl-3-(2-(trifluoromethyl)phenyl)isoxazol-4-yl)-7-azaspiro[3.5]non-1-en-7-yl)thiazolo[5,4-b]pyridine-5-carboxylic acid] | 18
Cc1cccc(Cl)c1-c1noc(C2CC2)c1C1=CC2(CCN(c3nc4c(F)cc(C(=O)O)cc4s3)CC2)C1 [Example 103, 2-(2-(3-(2-Chloro-6-methylphenyl)-5-cyclopropylisoxazol-4-yl)-7-azaspiro[3.5]non-1-en-7-yl)-4-fluorobenzo[d]thiazole-6-carboxylic acid] | 19
CC(C)Oc1cc(C(=O)O)nc2ccc(N3CCC4(C=C(c5c(-c6ccccc6C(F)(F)F)noc5C5CC5)C4)CC3)cc12 [Example 104, 6-(2-(5-Cyclopropyl-3-(2-(trifluoromethyl)phenyl)isoxazol-4-yl)-7-azaspiro[3.5]non-1-en-7-yl)-4-isopropoxyquinoline-2-carboxylic acid] | 59
CC(C)Oc1cc(C(=O)O)nc2ccc(N3CCC4(C=C(c5c(-c6ccccc6OC(F)(F)F)noc5C5CC5)C4)CC3)cc12 [Example 106, 6-(2-(5-Cyclopropyl-3-(2-(trifluoromethoxy)phenyl)isoxazol-4-yl)-7-azaspiro[3.5]non-1-en-7-yl)-4-isopropoxyquinoline-2-carboxylic acid] | 21
CCOc1cc(C(=O)O)nc2ccc(N3CCC4(C=C(c5c(-c6c(Cl)cncc6Cl)noc5C5CC5)C4)CC3)cc12 [Example 107, 6-(2-(5-Cyclopropyl-3-(3,5-dichloropyridin-4-yl)isoxazol-4-yl)-7-azaspiro[3.5]non-1-en-7-yl)-4-ethoxyquinoline-2-carboxylic acid] | 31
COc1cc(C(=O)O)nc2ccc(N3CCC4(C=C(c5c(-c6ccncc6Cl)noc5C5CC5)C4)CC3)cc12 [Example 109, 6-(2-(3-(3-Chloropyridin-4-yl)-5-cyclopropylisoxazol-4-yl)-7-azaspiro[3.5]non-1-en-7-yl)-4-methoxyquinoline-2-carboxylic acid] | 140
CC(C)Oc1cc(C(=O)O)nc2ccc(N3CCC4(C=C(c5c(-c6c(Cl)cc(F)cc6Cl)noc5C5CC5)C4)CC3)cc12 [Example 110, 6-(2-(5-Cyclopropyl-3-(2,6-dichloro-4-fluorophenyl)isoxazol-4-yl)-7-azaspiro[3.5]non-1-en-7-yl)-4-isopropoxyquinoline-2-carboxylic acid] | 37

More lines, now with the values ahead:

EC50 [nM] | Compound
38 | O=C(O)c1cc(C(F)(F)F)c2cc(N3CCC4(C=C(c5c(-c6c(Cl)cccc6Cl)noc5C5CC5)C4)CC3)ccc2n1 [Example 83, 6-(2-(5-Cyclopropyl-3-(2,6-dichlorophenyl)isoxazol-4-yl)-7-azaspiro[3.5]non-1-en-7-yl)-4-(trifluoromethyl)quinoline-2-carboxylic acid]
150 | O=C(O)c1cc(C(F)(F)F)c2cc(N3CCC4(C=C(c5c(-c6c(F)cccc6Cl)noc5C5CC5)C4)CC3)ccc2n1 [Example 88, 6-(2-(3-(2-Chloro-6-fluorophenyl)-5-cyclopropylisoxazol-4-yl)-7-azaspiro[3.5]non-1-en-7-yl)-4-(trifluoromethyl)quinoline-2-carboxylic acid]
202 | Cc1cccc(Cl)c1-c1noc(C2CC2)c1C1=CC2(CCN(c3ccc4nc(C(=O)O)cc(C(F)(F)F)c4c3)CC2)C1 [Example 89, 6-(2-(3-(2-Chloro-6-methylphenyl)-5-cyclopropylisoxazol-4-yl)-7-azaspiro[3.5]non-1-en-7-yl)-4-(trifluoromethyl)quinoline-2-carboxylic acid]
195 | O=C(O)c1cc(C(F)(F)F)c2cc(N3CCC4(C=C(c5c(-c6cnccc6C(F)(F)F)noc5C5CC5)C4)CC3)ccc2n1 [Example 90, 6-(2-(5-Cyclopropyl-3-(4-(trifluoromethyl)pyridin-3-yl)isoxazol-4-yl)-7-azaspiro[3.5]non-1-en-7-yl)-4-(trifluoromethyl)quinoline-2-carboxylic acid]
219 | O=C(O)c1cc(C(F)(F)F)c2cc(N3CCC4(C=C(c5c(-c6ncccc6Cl)noc5C5CC5)C4)CC3)ccc2n1 [Example 91, 6-(2-(3-(3-Chloropyridin-2-yl)-5-cyclopropylisoxazol-4-yl)-7-azaspiro[3.5]non-1-en-7-yl)-4-(trifluoromethyl)quinoline-2-carboxylic acid]
253 | O=C(O)c1cc(C(F)(F)F)c2cc(N3CCC4(C=C(c5c(-c6cccnc6C(F)(F)F)noc5C5CC5)C4)CC3)ccc2n1 [Example 92, 6-(2-(5-Cyclopropyl-3-(2-(trifluoromethyl)pyridin-3-yl)isoxazol-4-yl)-7-azaspiro[3.5]non-1-en-7-yl)-4-(trifluoromethyl)quinoline-2-carboxylic acid]
511 | O=C(O)c1cc(C(F)(F)F)c2cc(N3CCC4(C=C(c5c(-c6c(F)cncc6F)noc5C5CC5)C4)CC3)ccc2n1 [Example 93, 6-(2-(5-Cyclopropyl-3-(3,5-difluoropyridin-4-yl)isoxazol-4-yl)-7-azaspiro[3.5]non-1-en-7-yl)-4-(trifluoromethyl)quinoline-2-carboxylic acid]
869 | O=C(O)c1cc(C(F)(F)F)c2cc(N3CCC4(C=C(c5c(-c6ccc(F)cc6Cl)noc5C5CC5)C4)CC3)ccc2n1 [Example 96, 6-(2-(3-(2-Chloro-4-fluorophenyl)-5-cyclopropylisoxazol-4-yl)-7-azaspiro[3.5]non-1-en-7-yl)-4-(trifluoromethyl)quinoline-2-carboxylic acid]
1940 | COc1cncc(F)c1-c1noc(C2CC2)c1C1=CC2(CCN(c3ccc4nc(C(=O)O)cc(C(F)(F)F)c4c3)CC2)C1 [Example 97, 6-(2-(5-Cyclopropyl-3-(3-fluoro-5-methoxypyridin-4-yl)isoxazol-4-yl)-7-azaspiro[3.5]non-1-en-7-yl)-4-(trifluoromethyl)quinoline-2-carboxylic acid]
92 | O=C(O)c1cc(C(F)(F)F)c2cc(N3CCC4(C=C(c5c(-c6ccccc6C(F)(F)F)noc5C5CC5)C4)CC3)ccc2n1 [Example 99, 6-(2-(5-Cyclopropyl-3-(2-(trifluoromethyl)phenyl)isoxazol-4-yl)-7-azaspiro[3.5]non-1-en-7-yl)-4-(trifluoromethyl)quinoline-2-carboxylic acid]
62 | COc1cc(C(=O)O)nc2ccc(N3CCC4(C=C(c5c(-c6ccccc6C(F)(F)F)noc5C5CC5)C4)CC3)cc12 [Example 105, 6-(2-(5-Cyclopropyl-3-(2-(trifluoromethyl)phenyl)isoxazol-4-yl)-7-azaspiro[3.5]non-1-en-7-yl)-4-methoxyquinoline-2-carboxylic acid]
